Tests used:
[1] = target: T1, biotin-angiocidin complex binding to TSP-1 (Homo sapiens, UniProt P55036, INS254GER); test: Biotin-avidin receptor binding assay: competition; conditions: Example 23, FIGS. 29 and 30
T1 sequence (P55036 with tags, fused parts or gaps INS254GER): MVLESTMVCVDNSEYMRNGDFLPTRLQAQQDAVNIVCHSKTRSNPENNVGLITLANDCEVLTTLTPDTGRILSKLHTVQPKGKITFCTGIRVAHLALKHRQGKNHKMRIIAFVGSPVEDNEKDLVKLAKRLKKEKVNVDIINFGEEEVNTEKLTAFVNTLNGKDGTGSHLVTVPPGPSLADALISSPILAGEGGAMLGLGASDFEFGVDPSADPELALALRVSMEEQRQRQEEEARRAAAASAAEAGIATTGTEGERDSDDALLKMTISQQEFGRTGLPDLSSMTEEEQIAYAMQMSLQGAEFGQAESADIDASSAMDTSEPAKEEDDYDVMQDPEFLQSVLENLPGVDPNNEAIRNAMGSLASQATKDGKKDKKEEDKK
Method: In the following experiments, TSP-1 was covalently bound to a substrate, biotinylated angiocidin was added to the plate, and avidin-peroxidase was added to measure how much biotinylated angiocidin was attached to the TSP-1. The avidin-peroxidase was measured using a spectrophotometer at an absorbance of 450 nm.
Free angiocidin was added to the system to compete with the biotinylated angiocid in. […] Immobilized BSA was used as a negative control.
The TSP-1 peptide Cys-Ser-Val-Thr-Cys-Gly (SEQ ID NO: 1) was added to the system to compete with the TSP-1 on the plate for binding with the biotinylated angiocidin. The scrambled peptide Val-Cys-Thr-Gly-Ser-Cys (SEQ ID NO: 15) was used as a negative control and had no effect.
The avidin-biotin system discussed above was used to evaluate the competitive effect of various peptides on the binding of TSP-1 and angiocidin. […] The scrambled peptide Val-Cys-Thr-Gly-Ser-Cys-Gly (SEQ ID NO: 21) and the d-orientation peptide d-Cys-Ser-Val-Thr-Cys-Gly (SEQ ID NO: 22) were used as negative controls.

[2] = test system: Bovine aortic endothelial cells (BAEC); test: Collagen matrix angiogenesis assay (microvessel formation); assay type: cell-based; conditions: 37 μg/ml, 24 hours
Method: An experiment was performed to evaluate the effect of angiocidin on angiogenesis. Bovine aortic endothelial cells (BAEC) were plated on a collagen matrix. Next, the cells were over-layered with collagen. Angiocidin (37 μg/ml) was added on top of the cells in the treatment plate, and the control plate only received buffer. After 24 hours, phase contrast photomicrographs (200×) were taken. In the control plate, the BAEC cells rearranged themselves into a network of microvessels. […] This collagen assay is a well recognized model for angiogenesis. Qian et al., Thrombospondin-1 modulates angiogenesis in vitro by up-regulation of matrix metalloproteinase-9 in endothelial cells, Exp. Cell Res. 235:403-412 (1997).

[3] = test system: Bovine aortic endothelial cells (BAEC); test: Morphology of BAEC monolayer cultures; assay type: cell-based; conditions: 0.37, 3.7, 37 μg/ml, 24 hours, serum-free medium with 1% BSA
Method: In this experiment, BAEC cells in monolayer cultures were plated for 24 hours in serum-free medium containing 1% BSA in the presence of increasing concentrations of angiocidin (control=none, 0.37 μg/ml, 3.7 μg/ml, 37 μg/ml). Hoffman interference microscopy (100×) was used to photograph the cells.

Lewis lung carcinoma = test: Survival of mice bearing Lewis lung carcinoma (IV injected cells); assay type: in vivo; conditions: 50 μg IV on days 1, 3, 5, 7, 9
Method: Ten mice were injected with one million Lewis lung carcinoma tumor cells in an IV injection. After 3 days of incubation, the mice were divided into two groups. One group of five mice were treated with an IV injection of 50 μg of angiocidin in Hepes buffered saline. The control group of five mice was treated with Hepes buffered saline. Mice were treated on days 1, 3, 5, 7, and 9.

[4] = test system: MDA-MB-435 Breast Carcinoma Cells; test: Cell adhesion to immobilized recombinant receptor; assay type: cell-based
Method: For the adhesion assay, in a 96 well plate, duplicate wells were covered with either TSP-1 (40 μg/ml), fibronectin (40 μg/ml), or and 1% bovine serum albumin (BSA). The wells were dried out overnight and then blocked with BSA. 100 μl of a suspension containing 2×10^5 cells were plated in the protein covered wells and incubated at 37^□ C. for 20 minutes to 1 hour. The non-adherent cells were removed and the wells were washed with a Hepes buffer. The adherent cells were fixed with 2.5% glutaraldehyde for 10 minutes and stained with 0.2% Giemsa. The stain was washed off and the cells were counted in a field of 1 mm square. Cells adhering to BSA were considered background while cells adhering to fibronectin were the positive control.
The method of Example 12 was followed except the whole receptor protein was immobilized on the plates, and cells transfected with either TSP-1 cDNA or a vector control were applied to the plates. The cells, which naturally express a low level of TSP-1, were transfected to over express the protein. […] Fibronectin and BSA were used as positive and negative controls, respectively, for cell adhesion. This evidence bolsters the theory that the receptor of the present invention binds to thrombospondin.
This specific interaction was confirmed by adding anti-TSP-1 antibodies, Anti-Cys-Ser-Val-Cys-Thr-Gly (SEQ ID NO: 1), and control IgG to the system.

[5] = test system: Bovine Smooth Muscle Cells (BSM); test: ALAMAR BLUE cell viability assay; assay type: cell-based; conditions: 0 to 37 μg/ml, 24 hours
Method: Bovine aortic endothelial cells (BAEC), human umbilical vein endothelial cells (HUVEC), fibroblast cells, A549 human lung carcinoma cells (A549), MDA-MB231 human breast carcinoma cells (MB231), MCF7 human breast carcinoma cells (MCF7) were treated with 37 μg/ml of receptor, or buffer alone, for 24 hours. Viability of the cells was measured using the ALAMAR BLUE™ assay, which measures the capacity of cells to metabolize the ALAMAR BLUE™ dye. The ALAMAR BLUE™ assay (available from Biosource International, Camarillo, Calif.) quantitatively measures the proliferation of cell lines and can establish the relative cytotoxicity of chemical agents. The assay incorporates a fluorometric/colorimetric growth indicator based on detection of metabolic activity. The system incorporates an oxidation-reduction (redox) indicator that both fluoresces and changes color in response to chemical reduction of growth medium resulting from cell growth. […] Data can be collected using either fluorescence-based instrumentation (530-560 nm excitation wavelength and 590 nm emission wavelength) or absorbance-based instrumentation (570 nm and 600 nm).
BAEC and BSM cells were treated with increasing concentrations of angiocidin (0, 0.625, 1.25, 2.5, 5, 15, 26 and 37 μg/ml) for 24 hours. Cell viability was measured using the ALAMAR BLUE Tm assay. […]

## angiocidin: Cys-Ser-Val-Thr-Cys-Gly (SEQ ID NO: 1)-specific thrombospondin (TSP-1) receptor protein; recombinant form of SEQ ID NO: 2 used in the Examples
[1]
  competition of biotin-angiocidin binding to TSP-1: the binding decreased linearly
[2]
  microvessel formation: the microvessels did not form and the cells appeared dead
[3]
  cell morphology: elongated, detached from the plate, aggregated, and died
Lewis lung carcinoma
  median survival period: 19 days
[4]; nontransfected, naturally TSP-1 expressing cells, FIG. 17
  inhibition of cell adhesion to receptor bound to the plate by unbound receptor: reduced the adhesion of the cells to the plate
[4]; p<0.001
  adhesion of TSP-1 cDNA transfected cells to plates with receptor protein relative to control cell line: 2.5 times
[5]
  cell viability: unaffected

Reference: US20030180295A1, “Angiocidin: a Cys-Ser-Val-Thr-Cys-Gly specific tumor cell adhesion receptor” (Philadelphia Health and Education Corporation, priority 1999, published 2003)
